Tests used:
Roll Lesion nematode = test: vineyard grape vines, nematode infestation: roll lesion; type: in vivo
Protocol: (§1) The subject formulations were tested for ability to reduce grape vine infestation by root knot, ring, stubby root, and roll lesion nematodes. Grape vines (Harmony rootstock) in a vinyard were treated with 1000 ppm or 3000 ppm cinnamaldehyde in 2% Tween 80, the commercial anti-nematode agent Nemacur, or a formulation blank. The extent of nematode infestation was determined at the time of treatment and at 30 and 60 days post-treatment.

Root Knot Nematode = test: vineyard grape vines, nematode infestation: root knot; type: in vivo
Protocol: as §1

[1] = tested on: silverleaf white fly, Bemisia argentifolii; test: silver leaf white fly Petri dish bioassay
Protocol: Activity of cinnamic aldehyde and/or coniferyl aldehyde against black bean aphid, Tetranychus urticae, and silverleaf white fly, Bemisia argentifolii was determined as follows:
Petri dishes (60 mm) were treated with cinnamic aldehyde at 10-25,000 ppm in 2% Tween 80 and 6% NaHCO3 dissolved in water, and allowed to air dry. Twenty adult silver leaf white fly were put in each dish, (replicate 10 times). The mortality after three hours in contact with a treated plate, was compared to that of silver leaf white fly in petri dishes treated only with diluent. Malathion at 250 ppm was used as a positive control.

powdery mildew [2] = test: powdery mildew on Cabernet Sauvignon grapes; type: in vivo; details: for % CLUSTERS INFECTED-FIRST DAY / MEAN # OF BERRIES/CLUSTER INFECTED FIRST DAY: 2 days post treatment; for % CLUSTERS INFECTED-SECOND DAY / MEAN # OF BERRIES/CLUSTER INFECTED SECOND DAY: 10 days post-treatment
Protocol: The effect of 0.3% and 0.6% cinnamic aldehyde on powdery mildew on grapes was examined. A 3 acre block of Cabernet Sauvignon that was severely infested with powdery mildew (primarily on grape berries) was sprayed with either 0.3% or 0.6% cinnamic aldehyde using a 300 gal. Pul-Blast sprayer at 160 psi fitted with 10, D4 nozels using a #56 core. Approximately 1.25 acres were treated for each cinnamic aldehyde concentration. A 0.5 acre plot of control grape vines were sprayed with a tank mix at label rates of other commercially available pesticides (Abound, Provado, Kelthan, Silwet L-77 and a foliar nutrient spray( 10-12-0+2% zinc)) costing approximately $87.00/acre. For the two cinnamic aldehyde treatments and control plots, 2 rows per treatment were visually inspected for severe powdery mildew infections and marked with flagging tape. At least 10 locations were marked in each row inspected and defined sampling positions for determining efficacy of the treatments. Water sensitive cards were placed at the level of the cordon wire (where grape clusters are located) and were used to monitor spray coverage. Two and ten days subsequent to treatment, samples from two sides of each vine (to include variable powdery mildew incidence due to sun exposure) were examined for powdery mildew. […] 0.3% cinnamic aldehyde reduced powdery mildew infection of grapes to a level similar to the positive control while 0.6% cinnamic aldehyde reduced powdery mildew infection even more than the standard. Upon examination of the mean number of berries infected with powdery mildew, again, it was evident that both 0.3% and 0.6% cinnamic aldehyde reduced the extent of powdery mildew infection to levels that were to similar or less than the positive control respectively.

powdery mildew [3] = test: powdery mildew on Chardonnay grapes; type: in vivo
Protocol: The effect of 0.3% and 0.6% cinnamic aldehyde on pacific mites on grapevine leaves was examined cinnamic aldehyde was diluted to 0.3% and 0.6% in water. Each formulation was sprayed onto a 1 acre block of Chardonnay wine grapes with a tractor-drawn 500 gal. hydraulic sprayer at 150 psi at a rate of 150 gal./acre. As a control, a 10-acre block of Chardonnay wine grapes was treated the same day as the test formulations with the conventional treatment (Omite) per label directions. The number of mites was counted the day prior to spraying and 4 days after spraying. […] In fact, both concentrations reduced the number of mites to a larger extent than the positive control, conventional treatment, Omite. The 0.6% rate nearly eliminated live mites on grapevines. […] The 0.6% was slightly beter than the 0.3 % cinnamic aldehyde with respect to powdery mildew control.
The effect of 0.4% cinnamic aldehyde on powdery mildew and pacific mites on grapes was examined. Cinnamic aldehyde was diluted to 0.4% in water and sprayed onto a 1.8 acre test plot of Chardonnay grapevines with a tractor drawn, PTO powered sprayer, spraying at approximately 100 psi at a rate of 150 gal./acre. A 3 acre untreated plot served as a negative control. Additional controls included treatment of a 3.8 acre plot with stylet oil and a plot treated with a mix of Rubigan, Omite, and stylet oil, which cost appriximately $60.00/acre. Spray cards were placed randomly through the test block. Ten fruit clusters, which were generally completely covered with powdery mildew, in each of the four fields were flagged. […] Therefore, cinnamic aldehyde was effective at controlling both powdery mildew and pacific mites on grapes.

phylloxera Biotype A = test: planter / field box vines, leaf spray, phylloxera population on roots; type: in vivo, Daktulosphaira vitifoliae; details: Chardonnay (2 treatments), two weeks
[4] = 1000 ppm in 2% Tween 80, 30 days post-treatment
[5] = 1000 ppm in 2% Tween 80, 60 days post-treatment
[6] = 1000 ppm in 2% Tween 80, day 0 (time of treatment)
[7] = 3000 ppm in 2% Tween 80, 30 days post-treatment
[8] = 3000 ppm in 2% Tween 80, day 0 (time of treatment)
[9] = CNMA 0.4% in water, 150 gal./acre, controls stylet oil, chemical mix

## O=C/C=C/c1ccccc1 [cinnamic aldehyde]
Roll Lesion nematode; [4]
  Roll Lesion, nematodes per gram root: 2.7 per gram root
Roll Lesion nematode; [5]
  Roll Lesion, nematodes per gram root: 0 per gram root
Roll Lesion nematode; [6]
  Roll Lesion, nematodes per gram root: 2.9 per gram root
Roll Lesion nematode; [7]
  Roll Lesion, nematodes per gram root: 0.56 per gram root
Roll Lesion nematode; [8]
  Roll Lesion, nematodes per gram root: 1.0 per gram root
Root Knot Nematode; [4]
  Root Knot Nematode, nematodes per 250 cc soil: 872 per 250 cc soil
  Root Knot, nematodes per gram root: 55.2 per gram root
Root Knot Nematode; [5]
  Root Knot Nematode, nematodes per 250 cc soil: 204.5 per 250 cc soil
  Root Knot, nematodes per gram root: 11.8 per gram root
Root Knot Nematode; [6]
  Root Knot Nematode, nematodes per 250 cc soil: 498.8 per 250 cc soil
  Root Knot, nematodes per gram root: 301.3 per gram root
Root Knot Nematode; [7]
  Root Knot Nematode, nematodes per 250 cc soil: 700 per 250 cc soil
  Root Knot, nematodes per gram root: 125.6 per gram root
Root Knot Nematode; 3000 ppm in 2% Tween 80, 60 days post-treatment
  Root Knot Nematode, nematodes per 250 cc soil: 269.8 per 250 cc soil
Root Knot Nematode; [8]
  Root Knot Nematode, nematodes per 250 cc soil: 379.8 per 250 cc soil
  Root Knot, nematodes per gram root: 24.4 per gram root
[1]; 2500 ppm and above in 2% Tween 80 and 6% NaHCO3, three hours contact with treated dish
  silver leaf white fly killed: 100%
[1]; Bemisia argentifolii, 3 h
  mortality at 10 ppm: 25%
  mortality at 100 ppm: 50%
[1]; Cinnamic Aldehyde (20 g) with NaHCO3
  Silver Leaf White Fly Mortality (Percent): 87.3%
[1]; Cinnamic Aldehyde (20 g) with T80(2%) + NaHCO3 (6%)
  Silver Leaf White Fly Mortality (Percent): 100%
[1]; Cinnamic Aldehyde (20 g) with T80 (10 g)
  Silver Leaf White Fly Mortality (Percent): 72.1%
[1]; Cinnamic Aldehyde (20 g), no additive
  Silver Leaf White Fly Mortality (Percent): 68.6%
Powdery mildew [2]; 0.3% CNMA
  % CLUSTERS INFECTED-FIRST DAY: 60%
  MEAN # OF BERRIES/CLUSTER INFECTED FIRST DAY: 3.1
  % CLUSTERS INFECTED-SECOND DAY: 0.22%
  MEAN # OF BERRIES/CLUSTER INFECTED SECOND DAY: 0.72
Powdery mildew [2]; 0.6% CNMA
  % CLUSTERS INFECTED-FIRST DAY: 25%
  MEAN # OF BERRIES/CLUSTER INFECTED FIRST DAY: 0.5
  % CLUSTERS INFECTED-SECOND DAY: 0.2%
  MEAN # OF BERRIES/CLUSTER INFECTED SECOND DAY: 0.25
Powdery mildew [2]; both treatments, 0.3% and 0.6%
  time control of powdery mildew was maintained: at least three weeks
Powdery mildew [3]; [9]
  % INHIBITION (PM): 88%
  PM POST-SPRAY: 10
Powdery mildew [3]; baseline, CNMA 0.4% plot, stylet oil plot, chemical mix plot
  PM PRE-SPRAY: 84
Powdery mildew [3]; both treatments, 0.3% and 0.6% in water, Chardonnay
  incidence of powdery mildew (not quantitated): markedly reduced
Phylloxera Biotype A; 1 K CNMA
  Number of phylloxera per root piece: 637
Phylloxera Biotype A; 10 K CNMA
  Number of phylloxera per root piece: 102
